{
  "source": "patent US20210113496A1",
  "about": "“Methods of Treating Excitotoxicity Disorders” (HORIZON ORPHAN LLC, priority 2018, published 2021)",
  "key": {"[1]": {"test_system": "ST HDH Q111/111 striatal cells", "assay": "Permeability/Cell Death assay based on CellTox Green (membrane integrity)", "protocol": "(§1) All cell culture methods were carried out under sterile conditions in a class II laminar flow cabinet. The immortalized cell lines, ST HDH Q111/111 and ST HDH Q7/7 were derived from striatal neurons from HdhQ111/Q111 and HdhQ7/Q7 mice (expressing 111 and 7 glutamine repeats, respectively) and were purchased from Coriell. Cells were cultured in Dulbecco's Modified Eagle Medium (DMEM) supplemented with 10% FBS, 4 mM L-alanyl-L-glutamine (Corning Glutagro), and 400 μg/mL G418. Cells were grown at 33° C. in a 5% CO2 incubator. All experiments used cells with passages lower than 14.\n(§2) Cells were plated at a density of 8×10^3 or 1.2×10^3 cells/well (CellTox or XTT, respectively) in sterile 96 well plates (100 uL). Cells were allowed to adhere overnight at 33° C. in a 5% CO2 incubator. Test compounds were applied and left to incubate for an additional 24 hours. Membrane integrity was assessed by staining with CellTox Green (Promega) reagent following manufacturer guidelines for the Endpoint (2×) Method. Viability was assessed using an XTT Cell Proliferation Kit (ATCC). Before adding XTT reagent, wells were aspirated and washed with serum free media. 50 uL of XTT reagent and 100 uL serum free media were then added to each well and incubated for 2-4 hours before acquiring data. […]"}, "HDH Q111/111 cells": {"test_system": "HDH Q111/111 cells", "assay": "XTT Cell Proliferation assay (viability)", "settings": "FIGS. 2A and 2B", "protocol": "as §1, §2"}, "striatal cells": {"test_system": "striatal cells", "assay": "Live cell count after 24 or 48 hours of culture with glutamate (Cellometer)", "type": "cell-based, mice", "settings": "cells cultured with glutamate, cysteamine administered 24 hours later; FIG. 3", "protocol": "All experiments used cells with passages lower than 14. Cells were seeded into sterile 12 well plates at an appropriate density (80-120 k cells/well) to reach 50-75% confluence after 24 hours. […] Thereafter, wells were treated with test compounds. Following incubation with the compounds for 24 or 48 hours, wells were rinsed with DPBS, and detached using 500 uL Accutase (EMD). Pellets were rinsed and re-suspended in 250 uL DPBS and live cells were counted on a Cellometer Auto 2000."}},
  "data": [
    {"smiles": "N[C@@H](CCC(=O)O)C(=O)O", "note": "[glutamate, L-Glutamic acid]", "values": [
      {"measurement": "cytotoxicity (Cell Tox Green)", "setting": "[1]; 5 mM glutamate given alone, 24 hours, FIG. 1A", "result": "toxic to cells"},
      {"measurement": "glutamate excitotoxicity (XTT Cell Proliferation)", "setting": "HDH Q111/111 cells; glutamate in culture, HDH Q111/111 cells", "result": "experience glutamate excitotoxicity"}
    ]},
    {"smiles": "NCCS", "note": "[cysteamine, 2-aminoethanethiol]", "values": [
      {"measurement": "number of dead cells (CellTox Green)", "setting": "[1]; HDH cells cultured with cysteamine and BSO, compared to BSO alone", "result": "reduced the number of dead cells"},
      {"measurement": "sensitivity of cells to toxicity induced by glutamate and/or the test agents", "setting": "[1]; cysteamine in combination with GFPB (5 mM), and NMDA (500 uM)+4CPG (250 uM) or BSO (250 uM), FIG. 1B", "result": "able to reduce sensitivity of cells to toxicity"},
      {"measurement": "rescue of glutamate-induced excitotoxicity (XTT Cell Proliferation)", "setting": "HDH Q111/111 cells; cysteamine 25 μM in culture with glutamate", "result": "able to rescue glutamate-induced excitotoxicity"},
      {"measurement": "rescue of glutamate-induced excitotoxicity (XTT Cell Proliferation)", "setting": "HDH Q111/111 cells; cysteamine 75 μM in culture with glutamate", "result": "able to rescue glutamate-induced excitotoxicity"},
      {"measurement": "cell viability", "setting": "striatal cells", "result": "positive effects of cysteamine on the cell viability was still observed"}
    ]}
  ]
}
